From EP0134485A2, “5-Cyclopropyl-5,8-dihydro-8-oxo-1,3-dioxolo-(4,5-g) quinoline-7-carboxylic acid, process for its preparation and bactericidal agent containing it” (BAYER AG, priority 1983, dated 1985)
Converted amounts (≈) assume the structure as drawn.

What was measured:
Test in all cases: Agar dilution test (MIC), Isosensitest medium
Assay type in all cases: cell-based
Staph. aur. 133 = conditions: strain Staph. aur. 133, Denley multipoint inoculator, read-out: MHK
Excerpt: (§1) In der nachstehenden Tabelle sind die MHK-Werte der erfindungsgemäßen Verbindung angegeben.

Pseudom. W. = conditions: strain Pseudom. W., Denley multipoint inoculator, read-out: MHK
Excerpt: as §1

Klebsiella 6179 = conditions: strain Klebsiella 6179, Denley multipoint inoculator, read-out: MHK
Excerpt: as §1

Streptococc. faec. 9790 = conditions: strain Streptococc. faec. 9790, Denley multipoint inoculator, read-out: MHK
Excerpt: as §1

Proteus 8175 = conditions: strain Proteus 8175, Denley multipoint inoculator, read-out: MHK
Excerpt: as §1

Serratia 16040 = conditions: strain Serratia 16040, Denley multipoint inoculator, read-out: MHK
Excerpt: as §1

E. coli 455/7 = conditions: Escherichia coli, strain E. coli 455/7, Denley multipoint inoculator, read-out: MHK
Excerpt: as §1

Proteus mir. 8223 = conditions: strain Proteus mir. 8223, Denley multipoint inoculator, read-out: MHK
Excerpt: as §1

## O=C(O)c1cn(C2CC2)c2cc3c(cc2c1=O)OCO3 [I, 5-Cyclopropyl-5,8-dihydro-8-oxo-1,3-dioxolo[4,5-g]chinolin-7-carbonsäure]
Staph. aur. 133
  MIC: 0.25 µg/mL (≈ 0.915 µM)
Pseudom. W.
  MIC: 4 µg/mL (≈ 14.6 µM)
Klebsiella 6179
  MIC: 0.06 µg/mL (≈ 0.22 µM)
Streptococc. faec. 9790
  MIC: 8 µg/mL (≈ 29.3 µM)
Proteus 8175
  MIC: 0.03 µg/mL (≈ 0.11 µM)
Serratia 16040
  MIC: 4 µg/mL (≈ 14.6 µM)
E. coli 455/7
  MIC: 16 µg/mL (≈ 58.6 µM)
Proteus mir. 8223
  MIC: 8 µg/mL (≈ 29.3 µM)
